According to ChEMBL document CHEMBL4673231, “Novel isoniazid embedded triazole derivatives: Synthesis, antitubercular and antimicrobial activity evaluation” (Bioorg Med Chem Lett, 2020):
In brackets after ≈: the same amount, converted by molar mass. Activity calls are given as the source filed them. The rule behind the calls is not given here.

Columns and labels:
Saccharomyces cerevisiae = experiment: Antifungal activity against Saccharomyces cerevisiae assessed as diameter of inhibition zone at 1 mg/ml incubated for 24 hrs by agar well diffusion assay; type: functional; conditions: read-out: DIZ
Pseudomonas aeruginosa = experiment: Antibacterial activity against Pseudomonas aeruginosa assessed as diameter of inhibition zone at 1 mg/ml incubated for 24 hrs by agar well diffusion assay; type: functional; conditions: for zone of inhibition at 1000 µg/mL: read-out: DIZ
Bacillus subtilis = experiment: Antibacterial activity against Bacillus subtilis assessed as diameter of inhibition zone at 1 mg/ml incubated for 24 hrs by agar well diffusion assay; type: functional; conditions: read-out: DIZ
Salmonella typhi [1] = experiment: Antibacterial activity against Salmonella typhi ATCC 9207 by CLSI method; type: functional, Salmonella enterica subsp. enterica serovar Typhi; conditions: Salmonella enterica
[2] = test system: Mycobacterium tuberculosis; experiment: Antimycobacterial activity against Mycobacterium tuberculosis H37Rv assessed as reduction in microbial growth incubated for 7 days by alamar blue assay; type: functional; conditions: 168 h, time 7 day
Aspergillus niger = experiment: Antifungal activity against Aspergillus niger assessed as diameter of inhibition zone at 1 mg/ml incubated for 24 hrs by agar well diffusion assay; type: functional; conditions: read-out: DIZ
Staphylococcus aureus [3] = experiment: Antibacterial activity against Staphylococcus aureus assessed as diameter of inhibition zone at 1 mg/ml incubated for 24 hrs by agar well diffusion assay; type: functional; conditions: read-out: DIZ
Klebsiella aerogenes [4] = experiment: Antibacterial activity against Enterobacter aerogenes ATCC 13048 by CLSI method; type: functional
Bacillus cereus = experiment: Antibacterial activity against Bacillus cereus assessed as diameter of inhibition zone at 1 mg/ml incubated for 24 hrs by agar well diffusion assay; type: functional; conditions: read-out: DIZ
Shigella boydii = experiment: Antibacterial activity against Shigella boydii assessed as diameter of inhibition zone at 1 mg/ml incubated for 24 hrs by agar well diffusion assay; type: functional; conditions: read-out: DIZ
Staphylococcus aureus [5] = experiment: Antibacterial activity against Staphylococcus aureus ATCC 6538 by CLSI method; type: functional
Klebsiella aerogenes [6] = experiment: Antibacterial activity against Enterobacter aerogenes assessed as diameter of inhibition zone at 1 mg/ml incubated for 24 hrs by agar well diffusion assay; type: functional; conditions: read-out: DIZ
Escherichia coli = experiment: Antibacterial activity against Escherichia coli assessed as diameter of inhibition zone at 1 mg/ml incubated for 24 hrs by agar well diffusion assay; type: functional; conditions: for zone of inhibition at 1000 µg/mL: read-out: DIZ
[7] = test system: Salmonella enterica subsp. enterica serovar Abony; experiment: Antibacterial activity against Salmonella enterica subsp. enterica serovar Abony assessed as diameter of inhibition zone at 1 mg/ml incubated for 24 hrs by agar well diffusion assay; type: functional; conditions: for zone of inhibition at 1000 µg/mL: read-out: DIZ
Salmonella typhi [8] = experiment: Antibacterial activity against Salmonella typhi assessed as diameter of inhibition zone at 1 mg/ml incubated for 24 hrs by agar well diffusion assay; type: functional, Salmonella enterica subsp. enterica serovar Typhi; conditions: Salmonella enterica, read-out: DIZ
[9] = Cytotoxicity against mouse RAW264.7 cells assessed as reduction in cell viability at 25 ug/ml incubated for 48 hrs by MTT assay; type: cell-based; conditions: at 25 µg/mL, read-out: INH

Structure (SMILES) | zone of inhibition at 1000 µg/mL (Saccharomyces cerevisiae) | zone of inhibition at 1000 µg/mL (Pseudomonas aeruginosa) | zone of inhibition at 1000 µg/mL (Bacillus subtilis) | MIC (Salmonella typhi [1]) | MIC [2] | zone of inhibition at 1000 µg/mL (Aspergillus niger) | zone of inhibition at 1000 µg/mL (Staphylococcus aureus [3]) | MIC (Klebsiella aerogenes [4]) | zone of inhibition at 1000 µg/mL (Bacillus cereus) | zone of inhibition at 1000 µg/mL (Shigella boydii) | MIC (Staphylococcus aureus [5]) | zone of inhibition at 1000 µg/mL (Klebsiella aerogenes [6]) | zone of inhibition at 1000 µg/mL (Escherichia coli) | zone of inhibition at 1000 µg/mL [7] | zone of inhibition at 1000 µg/mL (Salmonella typhi [8]) | cytotoxicity at 48 h, 25 ug/ml [9] | diameter of the inhibition zone (DIZ) (Pseudomonas aeruginosa) | diameter of the inhibition zone (DIZ) [7] | diameter of the inhibition zone (DIZ) (Escherichia coli)
COc1ccccc1-n1cc(COc2ccc([N+](=O)[O-])cc2/C=N/NC(=O)c2ccncc2)nn1 | 10 mm | 8 mm | 12 mm | 230 µg/mL (≈ 486 µM) | > 25 µg/mL | 10 mm | 12 mm | 370 µg/mL (≈ 781 µM) | 12 mm | 13 mm | 450 µg/mL (≈ 950 µM) | 12 mm | 11 mm | 8 mm | 11 mm |  |  |  | 
O=C(N/N=C/c1cc([N+](=O)[O-])ccc1OCc1cn(-c2cccc(Cl)c2)nn1)c1ccncc1 | 10 mm | 8 mm | 11 mm | 140 µg/mL (≈ 293 µM) | 12.5 µg/mL | 9 mm | 15 mm | 260 µg/mL (≈ 544 µM) | 10 mm | 12 mm | 220 µg/mL (≈ 460 µM) | 13 mm | 10 mm | 10 mm |  | 20.1% |  |  | 
O=C(N/N=C/c1cc([N+](=O)[O-])ccc1OCc1cn(-c2ccccc2Cl)nn1)c1ccncc1 | 12 mm |  | 9 mm | 170 µg/mL (≈ 356 µM) | 1.56 µg/mL | 10 mm | 12 mm | 130 µg/mL (≈ 272 µM) | 11 mm | 7 mm | 200 µg/mL (≈ 419 µM) | 10 mm | 12 mm |  | 10 mm | 24.2% | inactive | inactive | 
Cc1ccccc1-n1cc(COc2ccc([N+](=O)[O-])cc2/C=N/NC(=O)c2ccncc2)nn1 | 12 mm | 10 mm | 11 mm | 270 µg/mL (≈ 590 µM) | 1.56 µg/mL | 9 mm | 13 mm | 190 µg/mL (≈ 415 µM) | 12 mm | 14 mm | 310 µg/mL (≈ 678 µM) | 10 mm |  | 12 mm | 11 mm | 24.2% |  |  | inactive
